This note sets out measurements from BindingDB's records for doi:10.1021/acs.jmedchem.3c00963 (n/a, 2023).

The assay deals with Dual specificity protein kinase TTK (Mus musculus) (UniProt P35761). Nature of the assay: Inhibition of mouse MPS1.

Molecules are shown by their SMILES.

Dual specificity protein kinase TTK (Mus musculus), sequence (P35761 whole entry, looked up): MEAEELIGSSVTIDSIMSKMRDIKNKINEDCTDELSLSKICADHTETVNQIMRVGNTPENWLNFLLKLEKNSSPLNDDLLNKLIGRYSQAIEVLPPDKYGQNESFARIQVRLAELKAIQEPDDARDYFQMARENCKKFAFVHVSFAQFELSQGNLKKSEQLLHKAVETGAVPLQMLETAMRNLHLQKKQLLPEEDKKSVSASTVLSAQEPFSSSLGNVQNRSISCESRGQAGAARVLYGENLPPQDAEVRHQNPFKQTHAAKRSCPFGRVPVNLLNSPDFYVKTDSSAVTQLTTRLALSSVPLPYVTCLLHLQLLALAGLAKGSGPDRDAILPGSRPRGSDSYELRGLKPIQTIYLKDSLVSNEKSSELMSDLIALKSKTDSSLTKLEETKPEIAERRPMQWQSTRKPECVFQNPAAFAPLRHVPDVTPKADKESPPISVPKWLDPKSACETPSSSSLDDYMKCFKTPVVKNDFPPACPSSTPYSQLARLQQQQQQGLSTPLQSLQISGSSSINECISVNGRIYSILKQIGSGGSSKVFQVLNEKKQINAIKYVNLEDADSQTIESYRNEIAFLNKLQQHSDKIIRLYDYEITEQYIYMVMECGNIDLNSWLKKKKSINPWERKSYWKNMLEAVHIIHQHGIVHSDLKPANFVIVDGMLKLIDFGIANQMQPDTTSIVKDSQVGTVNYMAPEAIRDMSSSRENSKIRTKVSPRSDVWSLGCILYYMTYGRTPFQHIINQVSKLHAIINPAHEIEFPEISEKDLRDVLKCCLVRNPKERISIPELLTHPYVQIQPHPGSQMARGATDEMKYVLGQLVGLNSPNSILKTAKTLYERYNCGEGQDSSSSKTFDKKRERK

In the case of `CC(C)CNc1nccn2c(-c3ccc(C(=O)NC4CC4)cc3)cnc12`, the IC50 – broadly, the concentration that inhibits the measured activity by half – was determined as 55 nM. For the compound `CC(C)CNc1nc(-c2cccc3ncccc23)cn2c(-c3ccc(C(=O)NC4CC4)cc3)cnc12`, inhibition was half-maximal at 9 nM (IC50).
